{"source": "patent US9119845B2", "about": "“Method for the treatment of neurological disorders by enhancing the activity of beta-glucocerebrosidase” (Amicus Therapeautics, Inc., priority 2006, dated 2015)", "key": {"GCase [1]": {"molecular_target": "T1, GCase (Homo sapiens (Human), UniProt P04062)", "T1 sequence (P04062 40-536)": "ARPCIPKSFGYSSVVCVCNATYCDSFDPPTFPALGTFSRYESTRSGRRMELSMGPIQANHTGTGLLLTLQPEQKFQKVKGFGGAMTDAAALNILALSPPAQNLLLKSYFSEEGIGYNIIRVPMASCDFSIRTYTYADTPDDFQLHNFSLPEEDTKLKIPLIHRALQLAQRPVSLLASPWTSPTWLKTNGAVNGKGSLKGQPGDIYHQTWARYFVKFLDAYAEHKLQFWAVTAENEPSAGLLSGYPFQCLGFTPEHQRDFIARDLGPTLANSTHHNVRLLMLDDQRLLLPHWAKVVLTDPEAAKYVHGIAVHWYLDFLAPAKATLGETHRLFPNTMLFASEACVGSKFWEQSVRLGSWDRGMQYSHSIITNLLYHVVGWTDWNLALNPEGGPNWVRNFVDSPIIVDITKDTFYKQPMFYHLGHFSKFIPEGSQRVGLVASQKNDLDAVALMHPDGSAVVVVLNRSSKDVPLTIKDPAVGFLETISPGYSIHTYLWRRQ", "assay": "biochemical"}, "GCase [2]": {"molecular_target": "T1, GCase", "conditions": "read-out: IC50 for GCase; printed in synthesis headings"}, "α-synuclein [3]": {"tested_on": "α-synuclein", "assay": "α-synuclein accumulation in brains of V394L homozygous knock-in mice treated with CBE", "format": "in vivo, mouse", "conditions": "CBE daily intraperitoneally for 30 days", "description": "Mice homozygous for the point mutations D409H or V394L and expressing a low level of saposin C in a prosaposin knock-out background, were analyzed for accumulation of α-synuclein in the brain. These mice have been reported to accumulate glucosylceramide in the brain. Mice homozygous for the point mutations V394L only, were analyzed for α-synuclein accumulation with and without CBE treatment. […] Mice were administered CBE daily by interperitonally injection for 30 consequitive days ([…] calculated from the total weight of the mouse) and brains were analyzed by immunohistochemistry for accumulation of α-synuclein.\nBrain tissue was frozen and fixed for immunohistochemistry with 4% paraformaldehyde and serial sections were co-labelled with anti-human α-synuclein (ab1903; Abcam, Cambridge, Mass.) and rabbit anti-ubiquitin (ab7780; Abcam, Cambridge, Mass.)."}, "α-galactosidase A": {"molecular_target": "α-galactosidase A (Homo sapiens (Human), UniProt P06280)", "sequence (P06280 32-429)": "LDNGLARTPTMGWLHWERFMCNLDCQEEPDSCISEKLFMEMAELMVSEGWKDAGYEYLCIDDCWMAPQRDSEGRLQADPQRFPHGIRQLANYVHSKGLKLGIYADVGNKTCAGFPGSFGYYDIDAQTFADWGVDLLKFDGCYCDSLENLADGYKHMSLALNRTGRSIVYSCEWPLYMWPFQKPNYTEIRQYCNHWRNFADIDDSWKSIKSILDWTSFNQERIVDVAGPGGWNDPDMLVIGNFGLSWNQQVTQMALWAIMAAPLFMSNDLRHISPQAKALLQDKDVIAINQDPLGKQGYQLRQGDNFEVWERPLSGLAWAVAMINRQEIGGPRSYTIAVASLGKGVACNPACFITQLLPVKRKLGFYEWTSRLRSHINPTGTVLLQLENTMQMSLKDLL", "conditions": "healthy volunteers, 50 mg b.i.d. and 150 mg b.i.d.; cited from earlier work"}, "[4]": {"assay": "Phase I studies in healthy volunteers: pharmacokinetics of oral IFG tartrate", "format": "in vivo, human", "conditions": "for half-life: both sexes, human, plasma", "description": "(§1) In a first-in-human single ascending dose study (1a), doses of 8, 25, 75, 150 (two cohorts), and 300 mg were administered (6 active, 2 placebo in each cohort). In a multiple ascending dose study (1b), doses of 25, 75, and 225 mg were administered daily for seven days (6 active, 2 placebo in each cohort). In both studies, of the eight subjects in each group; six were randomized to receive IFG tartrate, and two subjects received placebo. Subjects were confined from the evening of day-1 until 24 hrs after completion of dosing. In the phase 1a study subjects returned at 48 hrs (PK sampling) and 7 days (safety follow-up) following dosing. In the phase 1b study subjects returned at 48 h (PD sampling), 7 days (PD sampling and safety follow-up), and 14 days (PD sampling) following the last dose\nSubjects were healthy male and female volunteers between 19 and 55 years of age (inclusive) consisting of members of the community at large.\nBlood samples (10 mL each) were collected in blood collection tubes containing EDTA before dosing was determined at regular intervals for the phas 1a during 48 hr following dosing. In the phase 1b study a full IFG tartrate pharmacokinetic profile was determined for 24 hr following the first dose, Cmin values were obtained pre-dose on day 6 and 7, and another full profile was determined for 24 hr following the final, day 7, dose.\n(§2) GCase activity was determined pre-dose on days 1, 3, 5, 7, 9, 14, and 21. Blood samples were cooled in an ice bath and centrifuged under refrigeration as soon as possible. Plasma samples were divided into two aliquots and stored at […] pending assay. At the end of the study, all samples were transferred to MDS Pharma Services Analytical Laboratories (Lincoln) for analysis."}, "wild-type GCase": {"molecular_target": "wild-type GCase (Mus musculus (Mouse), UniProt P17439)", "sequence (P17439 20-515)": "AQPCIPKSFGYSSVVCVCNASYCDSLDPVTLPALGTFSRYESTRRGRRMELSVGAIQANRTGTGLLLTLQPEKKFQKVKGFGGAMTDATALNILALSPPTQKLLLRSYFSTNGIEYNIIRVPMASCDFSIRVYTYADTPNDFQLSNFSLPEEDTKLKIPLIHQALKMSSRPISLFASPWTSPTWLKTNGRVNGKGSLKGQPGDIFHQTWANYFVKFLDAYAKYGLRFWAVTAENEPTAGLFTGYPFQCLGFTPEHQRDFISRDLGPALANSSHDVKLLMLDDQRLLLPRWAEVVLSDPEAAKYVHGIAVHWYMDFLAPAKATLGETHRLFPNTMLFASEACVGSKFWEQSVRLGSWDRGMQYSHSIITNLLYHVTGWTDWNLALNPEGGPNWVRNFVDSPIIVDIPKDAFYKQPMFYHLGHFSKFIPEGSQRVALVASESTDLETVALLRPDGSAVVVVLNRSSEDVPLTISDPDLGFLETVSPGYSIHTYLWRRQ", "assay": "In vivo GCase activity in normal C57BL6 mice upon treatment with IFG", "description": "This Example provides information on the effects of isofagomine, a GCase-specific chaperone on mice. IFG were administered to the mice at 200 mg/kg/day; organs and plasma were collected 4 weeks after initiation of the study. Ten male C57BL6 (25 g) mice per group were used. The drug was be given in the drinking water, therefore water consumption was monitored daily.\nIn the control group (0 mg/kg/day), the mice were dosed daily in the drinking water (no drug) and divided into two groups. Ten animals were euthanized after 4 weeks of treatment, blood was collected from the descending aorta or vena cava, and tissues were harvested and then necropsied.\nIn the test group, 10 mice were dosed daily in the drinking water with an administration aim of 200 mg/kg/day.\nThe blood samples were drawn into lithium heparin and spun for plasma. After bleeding, the spleen, lung, brain and liver were removed and placed into vials. The vials were put into dry ice for rapid freezing. The tissues and plasma were then analyzed for tissue levels of GCase.\nSmall portions of tissue were removed and added to 500 μl lysis buffer (20 mM sodium citrate and 40 mM disodium hydrogen phosphate, pH 4.0, including 0.1% Triton X-100). Tissues were then homogenized using a microhomogenizer for a brief time, followed by centrifugation at 10,000 rpm for 10 minutes at 4° C. Supernatants were transferred to a new tube and used for the enzyme assay.\nThe enhancement ratio is equal to the activity with the compound over the activity without the compound."}, "GCase [5]": {"molecular_target": "T1, GCase", "assay": "Phase I multiple-dose study: GCase enzymatic activity in healthy volunteers", "format": "in vivo", "conditions": "dose-related, during treatment period, FIG. 2", "description": "as §1, §2"}, "α-synuclein [6]": {"tested_on": "α-synuclein", "assay": "α-synuclein immunohistochemistry in brains of transgenic mice over-expressing human α-synuclein", "format": "in vivo, mouse", "description": "48 transgenic animals (male and female) were allocated to 6 groups (n=8) at an age of 5 to 6 weeks concerning baseline and 3 to 4 weeks, respectively concerning all other treatment groups at treatment start. One group of transgenic animals served as baseline group (5 weeks old) and was sacrificed untreated on day 0. One group of transgenic animals was treated with vehicle.\nMice (ages 3-4 weeks) were treated once daily (orally) at either 2 mg/kg; 20 mg/kg; or 200 mg/kg of IFG tartrate for 3 months. One group also was treated once every other day at 20 mg/kg.\nAnimals of the baseline group were sacrificed at an age of 5 weeks. All other animals were sacrificed at the end of the 3 months treatment period and blood for preparation of serum and macrophages as well as lung, brain and CSF were extracted. Therefore, all mice were sedated by standard inhalation anesthesia (Isofluran, Baxter). Cerebrospinal fluid was obtained by blunt dissection and exposure of the foramen magnum. Upon exposure, a Pasteur pipette was inserted to the approximate depth of 0.3-1 mm into the foramen magnum. CSF was collected by suctioning and capillary action until flow fully ceases. CSF was immediately frozen and kept at −80° C.\nThe brains were removed and hemisected. The right hemispheres of all mice were immersion fixed in freshly produced 4% paraformaldehyde/PBS (pH 7.4) for one hour at room temperature. Thereafter brains were transferred to a 15% sucrose PBS solution for 24 hours to ensure cryoprotection. On the next day brains were frozen in liquid isopentane and stored at −80° C. until used for histological investigations. To determine the effects of the IFG-tartrate treatment from 8 animals per group 10 μm-thick cryosections were cut for determination of alpha-synuclein pathology. All organs and tissues mentioned were sampled and from specific brain regions i.e. hippocampus, midbrain, frontal cortex and striatum of one hemibrain were extracted and frozen. The other brain half was processed for histological evaluation.\nFor evaluation of the number of α-synuclein positive cells and Lewy body like inclusions an immunohistochemical staining was carried out using the monoclonal human alpha-synuclein specific antibody (Alexis®; Cat #804-258-L001), dilution 1:5, detected with secondary Cy2 antibody (Jackson Immunoresearch®). The number of alpha-synuclein positive cells in five different layers, one slice per layer, was counted for evaluation in the whole hippocampus and cortex separately.\nBriefly, samples were washed for 10 min with PBS at room temperature, followed by fixing for 30 min at room temperature with 4% paraformaldehyde, followed by washing 2 times for 5 min each with PBS at room temperature. For Proteinase K-treated sections, sections were incubated in PBS containing 10 μg/ml proteinase-K for 10 minutes at room temperature. Next, samples were incubated for 15 min at room temperature with blocking solution to block endogenous peroxidase, followed by two more 5 min washes with PBS. Samples were then incubated for 60 min at room temperature with a blocking reagent to block non-specific binding, followed by two more 5 min washes with PBS. Samples were then incubated with M.O.M. diluent for 5 min at room temperature, followed by incubation with the primary antibody (dilution 1:5 in M.O.M. diluent) for 60 min with at room temperature.\nAfter an hour, samples were washed 2 times for 5 min with PBS at room temperature, and incubated for another 60 min at room temperature with blocking reagent. Following two washes, samples were incubated with secondary Ab Cy 2-Goat Anti-Rat (Dilution 1:200 in M.O.M.) for 60 minutes at room temperature, in the absence of light. Samples were then washed for 5 min with PBS, for 5 min with sterile, molecular-biology grade water, and covered with polyvinyl alcohol.\nFor evaluation of the α-synuclein immunoreactivity, specialized image analysis software (Image Pro Plus, version 4.5.1.29) was used. […]"}, "[7]": {"assay": "Phase I studies in healthy volunteers: safety and tolerability", "format": "in vivo, human", "conditions": "both Phase I studies", "description": "as §1, with “last dose […]” for “last dose”\nSafety was determined by evaluating vital signs, laboratory parameters (serum chemistry, hematology, and urinalysis), physical examination and by recording adverse events during the Treatment Period.\nSafety data including laboratory evaluations, physical exams, adverse events, ECG monitoring and vital signs assessments were summarized by treatment group and point of time of collection. Descriptive statistics (arithmetic mean, standard deviation, median, minimum and maximum) were calculated for quantitative safety data as well as for the difference to baseline. […]"}, "[8]": {"conditions": "normal C57BL6 mice, 200 mg/kg/day in drinking water, FIG. 1"}}, "note": "Where a name gives a salt, the structure may show the parent alone. Read-outs that look alike come from different tables or passages of the source."}
{"molecule": "CC(C)(C)CCc1cn2c(n1)[C@H](O)[C@@H](O)[C@H](O)[C@H]2CO", "note": "[(5R,6R,7S,8S)-5-Hydroxymethyl-2-(3,3-dimethylbutyl)-5,6,7,8-tetrahydro-imidazo[1,2-a]pyridine-6,7,8-triol]", "values": [{"measurement": "IC50", "setting": "GCase [1]", "value": "~30", "unit": "pM"}]}
{"molecule": "CCCCCCCCc1cn2c(n1)[C@H](O)[C@@H](O)[C@H](O)[C@H]2CO", "note": "[(5R,6R,7S,8S)-5-Hydroxymethyl-2-n-octyl-5,6,7,8-tetrahydroimidazo[1,2-a]pyridine-6,7,8-triol]", "values": [{"measurement": "IC50", "setting": "GCase [1]", "value": "~70", "unit": "pM"}]}
{"molecule": "CC(C)(C)C#Cc1cn2c(n1)[C@H](OCc1ccccc1)[C@@H](OCc1ccccc1)[C@H](OCc1ccccc1)[C@H]2COCc1ccccc1", "note": "[(5R,6R,7S,8S)-6,7,8-Tris(benzyloxy)-5-[(benzyloxy)methyl]-2-(3,3-dimethylbyt-1-ynyl)-5,6,7,8-tetrahydroimidazo[1,2-a]pyridine]", "values": [{"measurement": "IC50", "setting": "GCase [2]", "value": "~1100", "unit": "pM"}]}
{"molecule": "O[C@H]1[C@H](O)[C@@H](O)[C@@H]2O[C@@H]2[C@@H]1O", "note": "[CBE, conduritol-β-epoxide]", "values": [{"measurement": "α-synuclein in the brain", "setting": "α-synuclein [3]", "value": "resulted in accumulation of α-synuclein in the brain"}]}
{"molecule": "OC[C@H]1NC[C@H](O)[C@@H](O)[C@H]1O", "note": "[DGJ, 1-deoxygalactonojirimycin]", "values": [{"measurement": "α-galactosidase A activity in white blood cells", "setting": "α-galactosidase A", "value": "dose-dependent increase"}]}
{"molecule": "OC[C@H]1CNC[C@@H](O)[C@@H]1O", "note": "[IFG, (3R,4R,5R)-5-(hydroxymethyl)-3,4-piperidinediol]", "values": [{"measurement": "half-life", "setting": "[4]; oral, repeated doses of 25 to 225 mg, read-out: mean half-lives", "value": "5.14 to 19.9", "unit": "h"}, {"measurement": "accumulation based on AUC and Cmax comparisons on Day 1 and Day 7", "setting": "[4]; repeated doses of 25 to 225 mg", "value": "Minimal accumulation"}, {"measurement": "GCase levels in brain", "setting": "wild-type GCase; [8]", "value": "increased"}, {"measurement": "GCase levels in liver", "setting": "wild-type GCase; [8]", "value": "increased"}, {"measurement": "GCase levels in lung", "setting": "wild-type GCase; [8]", "value": "increased"}, {"measurement": "GCase levels in spleen", "setting": "wild-type GCase; [8]", "value": "increased"}, {"measurement": "wild-type GCase activity, dose response", "setting": "wild-type GCase; separate experiment, mice treated with 0, 1, 10, or 100 mg/kg/day", "value": "linear dose-response increase"}, {"measurement": "increase in GCase enzyme levels above baseline", "setting": "GCase [5]", "value": "approximately 3.5 fold"}]}
{"molecule": "OC[C@H]1CNC[C@@H](O)[C@@H]1O", "note": "[isofagomine tartrate]", "values": [{"measurement": "half-life", "setting": "[4]; single-dose study, oral, read-out: plasma elimination half-life (converted)", "value": 14, "unit": "h"}, {"measurement": "systemic exposure via the oral route", "setting": "[4]; healthy volunteers, oral", "value": "good systemic exposure"}, {"measurement": "pharmacokinetic behavior and accumulation after 7 days of oral administration", "setting": "[4]; multiple-dose study, 25, 75, 225 mg daily for seven days", "value": "linear with dose, with no unexpected accumulation"}, {"measurement": "plasma AUC and Cmax versus dose", "setting": "[4]; single-dose study, 8 to 300 mg oral", "value": "linearly correlated with administered dose"}, {"measurement": "time at which mean plasma levels peaked", "setting": "[4]; single-dose study, oral", "value": 3.4, "unit": "h"}, {"measurement": "α-synuclein positive cell load versus baseline, both regions averaged", "setting": "α-synuclein [6]; 2 mg/kg daily for 3 months, p>0.05 versus baseline", "value": "prevented mice from the age-accompanied increase of pathology"}, {"measurement": "number of α-synuclein immunoreactive cells in the hippocampus versus vehicle-treated controls", "setting": "α-synuclein [6]; 2 mg/kg once daily orally for 3 months, p<0.05, FIG. 6B", "value": "reduced the number of immunoreactive cells in the hippocampus significantly"}, {"measurement": "α-synuclein pathology versus controls at 20 mg dose", "setting": "α-synuclein [6]; 20 mg/kg daily or every other day for 3 months", "value": "not effective versus controls"}, {"measurement": "accumulation of Proteinase K resistant α-synuclein aggregates", "setting": "α-synuclein [6]; 20 mg/kg, 3 months, single responding animal, FIG. 5", "value": "prevents the accumulation of these α-synuclein aggregates"}, {"measurement": "qualitative α-synuclein staining in cortex and hippocampus", "setting": "α-synuclein [6]; 2 and 20 mg/kg b.w. daily, some of the treated animals, FIGS. 3 and 4", "value": "strongly decreased background and decreased α-synuclein positive cell numbers"}, {"measurement": "α-synuclein pathology in the cortex", "setting": "α-synuclein [6]; oral treatment for 3 months, FIG. 6A", "value": "did not reach significance level"}, {"measurement": "serious adverse events", "setting": "[7]", "value": "No serious adverse events occurred"}, {"measurement": "tolerability", "setting": "[7]; all doses", "value": "generally well tolerated"}]}
